In patent US6737383B1, “Herbicidal oxadiazolidines” (priority 1999, dated 2004):

Assays:
[1] = test system: giant foxtail; assay: Test B pre/postemergence giant foxtail; assay type: in vivo, Setaria faberii
Outline: (§1)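 Herbicidal effect was estimated by eye on a ten-point control scale after plants spent twelve to sixteen days in a greenhouse following soil or foliar treatment. Foliar sprays targeted plants at one to four leaves; all doses were formulated in a non-phytotoxic solvent with surfactant.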

[2] = test system: rice; assay: Test B flood test rice; assay type: in vivo, Oryza sativa; conditions: Pre-emergence
Outline: (§2)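 Plants were grown to the 2-leaf stage before treatment with test chemical, then held in a greenhouse for twelve to sixteen days. Injury was visually rated against untreated controls on a 0–10 scale, where 0 is no effect and 10 is complete control.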

[3] = test system: surinam grass; assay: Test B pre/postemergence surinam grass; assay type: in vivo, Brachiaria decumbens
Outline: as §1

[4] = test system: wheat; assay: Test B pre/postemergence wheat; assay type: in vivo, Triticum aestivum
Outline: as §1

[5] = test system: smallflower flatsedge; assay: Test B flood test smallflower flatsedge; assay type: in vivo, Cyperus difformis; conditions: Pre-emergence
Outline: as §2

[6] = test system: pigweed; assay: Test B pre/postemergence pigweed; assay type: in vivo, Amaranthus retroflexus
Outline: as §1

[7] = test system: velvetleaf; assay: Test B pre/postemergence velvetleaf; assay type: in vivo, Abutilon theophrasti
Outline: as §1

[8] = test system: cocklebur; assay: Test B pre/postemergence cocklebur; assay type: in vivo, Xanthium strumarium
Outline: as §1

[9] = test system: sugar beet; assay: Test B pre/postemergence sugar beet; assay type: in vivo, Beta vulgaris
Outline: as §1

[10] = test system: crabgrass; assay: Test B pre/postemergence crabgrass; assay type: in vivo, Digitaria sanguinalis
Outline: as §1

[11] = test system: rape; assay: Test B pre/postemergence rape; assay type: in vivo, Brassica napus
Outline: as §1

[12] = test system: duck salad; assay: Test B flood test duck salad; assay type: in vivo, Heteranthera limosa; conditions: Pre-emergence
Outline: as §2

[13] = test system: corn; assay: Test B pre/postemergence corn; assay type: in vivo, Zea mays
Outline: as §1

[14] = test system: bedstraw; assay: Test B pre/postemergence bedstraw; assay type: in vivo, Galium aparine
Outline: as §1

[15] = test system: bamyardgrass; assay: Test B flood test barnyardgrass; assay type: in vivo, Echinochloa crus-galli; conditions: Pre-emergence
Outline: as §2

[16] = test system: soybean; assay: Test B pre/postemergence soybean; assay type: in vivo, Glycine max
Outline: as §1

[17] = test system: morningglory; assay: Test B pre/postemergence morningglory; assay type: in vivo, Ipomoea hederacea
Outline: as §1

[18] = test system: purple nutsedge; assay: Test B pre/postemergence purple nutsedge; assay type: in vivo, Cyperus rotundus
Outline: as §1

[19] = test system: blackgrass; assay: Test B pre/postemergence blackgrass; assay type: in vivo, Alopecurus myosuroides
Outline: as §1

[20] = test system: wild oat; assay: Test B pre/postemergence wild oat; assay type: in vivo, Avena fatua
Outline: as §1

[21] = Preemergence, Rate 31 g/ha, visual rating, scale 0 to 10 (0 no effect, 10 complete control)
[22] = Preemergence, Rate 62 g/ha, scale of 0 to 10 where 0 is no effect and 10 is complete control
[23] = Preemergence, Rate 250 g/ha, scale of 0 to 10 where 0 is no effect and 10 is complete control
[24] = Rate 31 g/ha, Postemergence, scale 0 to 10
[25] = Rate 62 g/ha, Postemergence, scale of 0 to 10 where 0 is no effect and 10 is complete control
[26] = Rate 125 g/ha, Preemergence, scale of 0 to 10 where 0 is no effect and 10 is complete control
[27] = Rate 1000 g/ha, scale 0 to 10 (0 no effect, 10 complete control)
[28] = Rate 125 g/ha, flood test species, scale 0 to 10 where 0 is no effect and 10 is complete control
[29] = Rate 250 g/ha, flood-test species, scale 0 to 10, 0 is no effect, 10 is complete control
[30] = Rate 500 g/ha, flood test species, scale 0 to 10 (0 no effect, 10 complete control)
[31] = Rate 125 g/ha, Postemergence, scale 0 to 10

CCOC(=O)C(C)N(C(=O)n1oc(=O)n(-c2c(C)cccc2C)c1=O)c1ccc(F)cc1 (stereo not drawn) [Compound 244]
0: Giant foxtail plant response rating [1, 21] | Giant foxtail plant response rating [1, 22] | Giant foxtail plant response rating [1, 23] | Giant foxtail plant response rating [1, 24] | Giant foxtail plant response rating [1, 25] | Giant foxtail plant response rating [1, 26] | Plant response rating (0 to 10; 0 is no effect, 10 is complete control), Giant foxtail ([1]; Rate 250 g/ha, Postemergence) | Rice plant response rating [2, 27] | Rice plant response rating [2, 28] | Rice plant response rating [2, 29] | Rice plant response rating [2, 30] | B. signalgrass plant response rating [3, 21] | B. signalgrass plant response rating [3, 22] | B. signalgrass plant response rating [3, 23] | B. signalgrass plant response rating [3, 24] | B. signalgrass plant response rating [3, 25] | B. signalgrass plant response rating ([3]; Rate 125 g/ha, Postemergence, scale 0 (no effect) to 10 (complete control)) | B. signalgrass plant response rating [3, 26] | Plant response rating (0 to 10; 0 is no effect, 10 is complete control), B. signalgrass ([3]; Rate 250 g/ha, Postemergence) | Wheat plant response rating [4, 21] | Wheat plant response rating [4, 22] | Wheat plant response rating [4, 23] | Wheat plant response rating [4, 25] | Wheat plant response rating [4, 26] | S. Flatsedge plant response rating [5, 27] | S. Flatsedge plant response rating [5, 28] | S. Flatsedge plant response rating [5, 29] | S. Flatsedge plant response rating [5, 30] | Redroot pigweed plant response rating [6, 21] | Redroot pigweed plant response rating [6, 22] | Redroot pigweed plant response rating [6, 23] | Redroot pigweed plant response rating [6, 24] | Redroot pigweed plant response rating [6, 25] | Redroot pigweed plant response rating [6, 26] | Plant response rating (0 to 10; 0 is no effect, 10 is complete control), Redroot pigweed ([6]; Rate 250 g/ha, Postemergence) | Velvetleaf plant response rating [7, 21] | Velvetleaf plant response rating [7, 22] | Velvetleaf plant response rating [7, 23] | Velvetleaf plant response rating [7, 25] | Velvetleaf plant response rating [7, 26] | Cocklebur plant response rating [8, 21] | Cocklebur plant response rating [8, 22] | Cocklebur plant response rating [8, 23] | Cocklebur plant response rating [8, 24] | Cocklebur plant response rating [8, 25] | Cocklebur plant response rating [8, 31] | Cocklebur plant response rating [8, 26] | Plant response rating (0 to 10; 0 is no effect, 10 is complete control), Cocklebur ([8]; Rate 250 g/ha, Postemergence) | Sugarbeets plant response rating [9, 21] | Sugarbeets plant response rating [9, 22] | Sugarbeets plant response rating [9, 23] | Sugarbeets plant response rating [9, 25] | Sugarbeets plant response rating [9, 26] | Crabgrass plant response rating [10, 21] | Crabgrass plant response rating [10, 22] | Crabgrass plant response rating [10, 23] | Crabgrass plant response rating [10, 24] | Crabgrass plant response rating [10, 25] | Crabgrass plant response rating [10, 26] | Plant response rating (0 to 10; 0 is no effect, 10 is complete control), Crabgrass ([10]; Rate 250 g/ha, Postemergence) | Rape plant response rating [11, 21] | Rape plant response rating [11, 22] | Rape plant response rating [11, 23] | Rape plant response rating [11, 24] | Rape plant response rating [11, 25] | Rape plant response rating [11, 26] | Plant response rating (0 to 10; 0 is no effect, 10 is complete control), Rape ([11]; Rate 250 g/ha, Postemergence) | Ducksalad plant response rating [12, 27] | Ducksalad plant response rating [12, 28] | Ducksalad plant response rating [12, 29] | Ducksalad plant response rating [12, 30] | Corn plant response rating [13, 21] | Corn plant response rating [13, 22] | Corn plant response rating [13, 23] | Corn plant response rating [13, 24] | Corn plant response rating [13, 25] | Corn plant response rating [13, 31] | Corn plant response rating [13, 26] | Plant response rating (0 to 10; 0 is no effect, 10 is complete control), Corn ([13]; Rate 250 g/ha, Postemergence) | Bedstraw plant response rating [14, 21] | Bedstraw plant response rating [14, 22] | Bedstraw plant response rating [14, 23] | Bedstraw plant response rating [14, 24] | Bedstraw plant response rating [14, 25] | Bedstraw plant response rating [14, 31] | Bedstraw plant response rating [14, 26] | Plant response rating (0 to 10; 0 is no effect, 10 is complete control), Bedstraw ([14]; Rate 250 g/ha, Postemergence) | Barnyardgrass plant response rating [15, 27] | Barnyardgrass plant response rating [15, 28] | Barnyardgrass plant response rating [15, 29] | Barnyardgrass plant response rating [15, 30] | Soybean plant response rating [16, 21] | Soybean plant response rating [16, 22] | Soybean plant response rating [16, 23] | Soybean plant response rating [16, 25] | Soybean plant response rating [16, 26] | Morningglory plant response rating [17, 21] | Morningglory plant response rating [17, 22] | Morningglory plant response rating [17, 23] | Morningglory plant response rating [17, 24] | Morningglory plant response rating [17, 25] | Morningglory plant response rating [17, 26] | Plant response rating (0 to 10; 0 is no effect, 10 is complete control), Morningglory ([17]; Rate 250 g/ha, Postemergence) | Nutsedge plant response rating [18, 21] | Nutsedge plant response rating [18, 22] | Nutsedge plant response rating [18, 23] | Nutsedge plant response rating [18, 24] | Nutsedge plant response rating [18, 25] | Nutsedge plant response rating [18, 26] | Plant response rating (0 to 10; 0 is no effect, 10 is complete control), Nutsedge ([18]; Rate 250 g/ha, Postemergence) | Blackgrass plant response rating [19, 21] | Blackgrass plant response rating [19, 22] | Blackgrass plant response rating [19, 23] | Blackgrass plant response rating [19, 24] | Blackgrass plant response rating [19, 25] | Blackgrass plant response rating [19, 31] | Blackgrass plant response rating [19, 26] | Plant response rating (0 to 10; 0 is no effect, 10 is complete control), Blackgrass ([19]; Rate 250 g/ha, Postemergence) | Wild oats plant response rating [20, 21] | Wild oats plant response rating [20, 22] | Wild oats plant response rating [20, 23] | Wild oats plant response rating [20, 25] | Wild oats plant response rating [20, 26]
